Measurements: patent publication US20250312288A1, “LIPIDS AND LIPID NANOPARTICLE FORMULATIONS” (LONGUIDE BIOPHARMA CORPORATION, priority 2024, published 2025)

Test system: mice
Experiment: In vivo delivery of FLuc-circ-RNA lipid nanoparticles in mice (IVIS imaging)
Conditions: for delivery efficiencies on change from mRNA to circular RNA: statement on Table 3, circular RNA LNP vs mRNA LNP; for IVIS: FLuc-circRNA LNP, IV
Description: 8.2 Investigation of the Delivery Efficacy of Nucleic Acid Lipid Nanoparticles for FLuc-Circ-mRNA in Mice
Lipid nanoparticles loaded with nucleic acid drugs were prepared according to step 2, replacing FLuc-mRNA with FLuc-circ-RNA (Shanghai Zhiwei Technology Development Co., Ltd.). After formulation, the nanoparticles were administered via intramuscular injection (into the quadriceps femoris muscle of mice), intravenous injection (into the tail vein of mice), intraperitoneal injection, or subcutaneous injection (subcutaneously on the back). Approximately 75 μL was injected per mouse, with a total of 3 mice per group. In vivo imaging (PerkinElmer, IVIS Lumina III) was performed after a certain period of time. Ten to fifteen minutes before imaging, 200 μL of a 15 mg/mL D-Luciferin working solution was injected intraperitoneally, followed by imaging analysis using the in vivo imaging system.

Structure (SMILES) | delivery efficiencies on change from mRNA to circular RNA | IVIS (organ liver) | IVIS (organ lung) | IVIS (organ spleen)
CCCCCCC(CCCCCC)C(=O)NCCOC(=O)C(O)CN(CCO)CCCN(CC(O)C(=O)OCCNC(=O)C(CCCCCC)CCCCCC)CC(O)C(=O)OCCNC(=O)C(CCCCCC)CCCCCC (stereo not shown) [Compound L0711] | further increased the delivery efficiencies | – | – | –
CCCCCCOC(C)OCCCCCCOC(=O)C(O)CN(CCO)CCCN(CC(O)C(=O)OCCCCCCOC(C)OCCCCCC)CC(O)C(=O)OCCCCCCOC(C)OCCCCCC (stereo not shown) [Compound L0692] | further increased the delivery efficiencies | 3.34E+06 | 8.55E+04 | 2.64E+06
CCCCCCC(CCCCCC)C(=O)OCCCCCCNC(=O)C(O)CN(CCO)CCCN(CC(O)C(=O)NCCCCCCOC(=O)C(CCCCCC)CCCCCC)CC(O)C(=O)NCCCCCCOC(=O)C(CCCCCC)CCCCCC (stereo not shown) [Compound L0710] | further increased the delivery efficiencies | 3.07E+08 | 4.78E+06 | 9.97E+07
CCCCCCCCC(CCCCCC)C(=O)NCCOC(=O)C(O)CN(CCO)CCCN(CC(O)C(=O)OCCNC(=O)C(CCCCCC)CCCCCCCC)CC(O)C(=O)OCCNC(=O)C(CCCCCC)CCCCCCCC (stereo not shown) [Compound L0714] | further increased the delivery efficiencies | – | – | –
